In the supplement of paper PMC10307832:

Experiments:
Experiment in all cases: relative viability (nuclei count vs DMSO), 5 days (fraction); higher = more cells survive
[1] = compound: COc1nc(N)nc2c1ncn2[C@@H]1O[C@H](CO)[C@@H](O)[C@@H]1O [Nelarabine] + Cc1nc(Nc2ncc(C(=O)Nc3c(C)cccc3Cl)s2)cc(N2CCN(CCO)CC2)n1 [Dasatinib] (partner 0.075 µM)
In short: (§1)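 Medians of duplicate plates are given as relative viability. That measure is the nuclei count in treated wells divided by the count in vehicle wells. Counts were taken on 4× images of lung cancer cell lines in 1536-well plates, 5 days after pin-tool dosing the day after seeding with one drug alone or a fixed anchor-drug dose plus five library-drug doses (not always all listed) in √10 steps.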

[2] = compound: COc1nc(N)nc2c1ncn2[C@@H]1O[C@H](CO)[C@@H](O)[C@@H]1O [Nelarabine] + N=C(N)NC(=N)NCCc1ccccc1 [Phenformin] (partner 250 µM)
In short: as §1

[3] = compound: C=CCn1c(=O)c2cnc(Nc3ccc(N4CCN(C)CC4)cc3)nc2n1-c1cccc(C(C)(C)O)n1 [Adavosertib] + CS(=O)(=O)N1CCN(Cc2cc3nc(-c4cccc5[nH]ncc45)nc(N4CCOCC4)c3s2)CC1 [Pictilisib] (partner 1 µM)
In short: as §1

[4] = compound: COc1nc(N)nc2c1ncn2[C@@H]1O[C@H](CO)[C@@H](O)[C@@H]1O [Nelarabine] + CCNC(=O)c1noc(-c2cc(C(C)C)c(O)cc2O)c1-c1ccc(CN2CCOCC2)cc1 [Luminespib] (partner 0.01 µM)
In short: as §1

EMC-BAC-2
relative viability ([1]; first compound 0.01 µM): 0.409
relative viability ([1]; first compound 0.03162 µM): 0.348
relative viability ([1]; first compound 0.1 µM): 0.304
relative viability ([1]; first compound 0.3162 µM): 0.374
relative viability ([1]; first compound 1 µM): 0.356
relative viability ([2]; first compound 0.01 µM): 0.587
relative viability ([2]; first compound 0.03162 µM): 0.463
relative viability ([2]; first compound 0.1 µM): 0.493
relative viability ([2]; first compound 0.3162 µM): 0.517
relative viability ([2]; first compound 1 µM): 0.539
relative viability ([3]; first compound 0.01 µM): 0.544
relative viability ([3]; first compound 0.03162 µM): 0.56
relative viability ([3]; first compound 0.1 µM): 0.583
relative viability ([3]; first compound 0.3162 µM): 0.544
relative viability ([4]; first compound 0.01 µM): 1.41
relative viability ([4]; first compound 0.03162 µM): 1.16
relative viability ([4]; first compound 0.1 µM): 1.11
relative viability ([4]; first compound 0.3162 µM): 1.22
relative viability ([4]; first compound 1 µM): 1.28
